Experiments:
NF-κB = experiment: Western blot of nuclear NF-κB levels in the dorsal horn of the spinal cord; assay type: in vivo, mice; conditions: 50 mg/Kg, 14 dpi
Description: Subcellular fractionation was obtained by differential centrifugation as described elsewhere. Briefly, tissue was homogenized in lysis buffer (10 mM Tris-HCl pH 7.5, 1 mM EDTA, 1 mM Na3VO4, 0.25 M sucrose, 2 mM PMSF, 1 μg/μL aprotinin, 1 μg/μL leupeptin, 2 mM sodium orthovanadate). The homogenate was centrifuged at 2,000 × g for 10 min at 4°C to separate the nuclei fraction (P1). The P1 was resuspended in lysis buffer. The resulting supernatant was centrifuged at 10,000×g for 15 min at 4°C to obtain a crude membrane fraction (P2). The P2 was resuspended and incubated in the lysis buffer containing 0.5% Triton X-100 for 15 min, and then centrifuged at 25,000 × g for 20 min to obtain the synaptosomal membrane fraction (P3). Finally, the P3 was resuspended in lysis buffer and centrifuged on a discontinuous sucrose gradient (0.8 M, 1 M and 1.2 M) at 150,000×g for 2 h. Synaptic plasma membrane (SPM) was collected from the 1:1.2 M interface and resuspended in 50 mM HEPES, 2 mM EDTA, 1 mM PMSF, 10 μg/ml aprotinin, 1 μg/ml leupeptin and 2 mM sodium orthovanadate.
(§1) Western blotting was performed as previously described. The following primary antibodies were used: anti-FASN (1:1000, BD Bioscience, San Jose, CA); anti-TNF-α, anti-IL-1β, anti-IL-6 and anti-NFκB (all 1:500, Santa Cruz Biotechnology, Santa Cruz, CA); anti-phosphoNMDAR2B (Tyr1472) (1:2000, Affinity Bioreagents, Golden, CO) and anti-NMDAR2B (1:1000, Chemicon, Temecula, CA). Loading control was performed by reprobing the membranes with anti-actin (1:10,000; MP Biochemicals, Aurora, OH), anti-NeuN (1:1,000; Chemicon) or anti-N-cadherin (1:1000, BD Bioscience). Membranes were incubated with the corresponding horseradish peroxidase-conjugated antibody (1:2,000; Promega, Madison, WI). Immunoreactive bands were visualized using the Western Blotting Luminol Reagent and quantified by a computer-assisted densitometer (Gel-Pro Analyzer, version 4, Media Cybernetics).

CCI-mice = experiment: Thermal hyperalgesia (plantar heat / Hargreaves test), paw withdrawal latency after chronic constriction injury; assay type: in vivo; conditions: for latency to paw withdrawal to a thermal stimulus: mean ± SEM, n = 5; for time-dependent effect on thermal paw withdrawal latency vs vehicle: 50 mg/Kg i.p., assessed weekly from 7 to 56 dpi, n = 15 (Fig 1)
Description: The chronic constriction injury (CCI) followed the procedure described elsewhere. Animals were anesthetized with sodium pentobarbital (50 mg/kg; i.p.), an incision was made in the right thigh, and the sciatic nerve was exposed. Two loose ligatures with 1 mm apart were then made around the nerve using the 6–0 poly-glycolic acid synthetic absorbable sutures. The incision was closed using 5–0 interrupted nylon sutures. A control group was included with sham surgery where the right sciatic nerve was exposed but not further manipulated.
For dose response studies, EGCG and the two synthetic EGCG derivatives compound 23 and compound 30 were administered by intra-peritoneal injection at 10, 30, 50 and 100 mg/Kg (n = 5 mice/compound/dose), 30 minutes after the CCI. To analyze the time-dependent effect EGCG and the two synthetic EGCG derivatives compound 23 and compound 30 were administered by intra-peritoneal injection at 50 mg/Kg (n = 15 mice/compound), 30 minutes after the CCI. Another set of animals were used to study the effect of 50 mg/kg of EGCG and the two synthetic EGCG derivatives compound 23 and compound 30 at 14 dpi (n = 15 mice/compound). In all cases, the administration was daily repeated during the first week. All compounds were dissolved in DMSO/saline solution (1:9; v/v), used as vehicle group.
To measure changes in thermal sensation we used the plantar heat test (Ugo Basile, Italy) as previously described. Briefly, mice were acclimated 5 days (15 min/day) prior to CCI. At 7, 14, 21, 28, 35, 42, 49 and 56 dpi, mice were enclosed in a clear Plexiglas box. After 15 min, during which the animals were provided with free exploration to habituate to the apparatus, infrared light beam was applied to the plantar surface of the […], and paw withdrawal latency was recorded in seconds. The infrared stimulus application automatically shut off at 30 seconds to avoid tissue damage. Four trials were measured randomly for right […] with at least 2 minutes between each trial.

[1] = Toxicity studies: body weight, food and fluid intake, histological examination; assay type: in vivo, mice; conditions: vs control animals (data not shown)
TNF-α, IL-1β and IL-6 = experiment: Western blot of cytokine protein levels in the dorsal horn of the spinal cord; assay type: in vivo, mice; conditions: 50 mg/Kg, 14 dpi
Description: Mice (n = 5 per group) were sacrificed with sodium pentobarbital (90 mg/kg; i.p.) at 14 and 56 dpi and spinal cord segments distal to T12 vertebra were quickly removed and frozen. For total protein extraction, the dorsal horn of the spinal cord was homogenized in modified RIPA buffer (50 mM Tris–HCl pH 7.5, 1% Triton X-100, 0.5% sodium deoxycholate, 0.2% SDS, 100 mM NaCl, 1 mM EDTA, 2 mM PMSF, 1 μg/μL aprotinin, 1 μg/μL leupeptin and 2 mM sodium orthovanadate).
as §1

[2] = Serum stability study, human serum; assay type: in vitro ADME; conditions: 37°C, 75% serum, 0.5 mM compound; for half-life at 0.5 mM: human serum (75% final serum content), read-out: half-life (t1/2) (converted)
Description: (§2) Peptide stabilities were assayed in diluted serum as previously described. Human serum (Sigma, S7023) or mouse serum (Europa Bioproducts, EQSM-0100) were incubated at 37°C for 10 min. The assay was initiated upon the addition of the test compound solved in PBS to the serum (75% final serum content) for a final compound concentration of 0.5 mM. Then, 500 µL aliquots of the incubations were taken for the following time points: 0, 15, 30, 60, 120 and 240 min. The aliquots were mixed with 750 µL of cold acetonitrile (ACN) and incubated at 4°C for 10 min to precipitate serum proteins. The supernatant was collected for each sample after centrifugation at 39,000 g for 10 min and were immediately analyzed by high performance liquid chromatography-mass spectrometry (HPLC-MS).

[3] = Serum stability study, mouse serum; assay type: in vitro ADME; conditions: mouse (Balb/c) serum, 37°C, 75% serum, 0.5 mM compound; for half-life at 0.5 mM: mouse serum (75% final serum content), read-out: half-life (t1/2) (converted)
Description: as §2

[4] = parameters: method as in PMID 20008854, PMID 22559865, PMID 17902053; conditions: previously published toxicity studies; cited from earlier work
FASN = tested on: FASN; parameters: method as in PMID 22559865; conditions: previously reported; cited from earlier work
[5] = 10 mg/Kg i.p. daily first week post-CCI, 7 dpi
[6] = 10 mg/Kg i.p. daily first week post-CCI, 21 dpi
[7] = 30 mg/Kg i.p. daily first week post-CCI, 7 dpi
[8] = 30 mg/Kg i.p. daily first week post-CCI, 21 dpi
[9] = 50 mg/Kg i.p. daily first week post-CCI, 7 dpi
[10] = 50 mg/Kg i.p. daily first week post-CCI, 21 dpi
[11] = 100 mg/Kg i.p. daily first week post-CCI, 7 dpi
[12] = 100 mg/Kg i.p. daily first week post-CCI, 21 dpi

Row | Compound | nuclear NF-κB levels (NF-κB) | latency to paw withdrawal to a thermal stimulus (CCI-mice; [5]) [s] | latency to paw withdrawal to a thermal stimulus (CCI-mice; [6]) [s] | latency to paw withdrawal to a thermal stimulus (CCI-mice; [7]) [s] | latency to paw withdrawal to a thermal stimulus (CCI-mice; [8]) [s] | latency to paw withdrawal to a thermal stimulus (CCI-mice; [9]) [s] | latency to paw withdrawal to a thermal stimulus (CCI-mice; [10]) [s] | time-dependent effect on thermal paw withdrawal latency vs vehicle (CCI-mice) | latency to paw withdrawal to a thermal stimulus (CCI-mice; [11]) [s] | latency to paw withdrawal to a thermal stimulus (CCI-mice; [12]) [s] | histological examination of liver, heart, kidney lung and brain [1] | protein levels of TNF-α, IL-1β and IL-6 compared to vehicle group (TNF-α, IL-1β and IL-6) | half-life at 0.5 mM [2] [min] | half-life at 0.5 mM [3] [min] | changes on body weight versus the control group [4] | % of FASN inhibition (FASN) [%] | half-life (t1/2) [2] | half-life (t1/2) [3]
1 | O=C(Oc1ccc(-c2ccc(OC(=O)c3cc(O)c(O)c(O)c3)cc2)cc1)c1cc(O)c(O)c(O)c1 [Compound 30, 4,4′-Bis [(3,4,5-trihydroxybenzoyl)oxy]-1,1′-biphenyl] | reduced | 3.71 ± 0.39 | 4.11 ± 0.51 | 3.93 ± 0.37 | 4.33 ± 0.57 | 4.31 ± 0.3 | 7.61 ± 0.67 | augmentation in the paw withdrawal latency from 14 to 56 dpi | 4.79 ± 0.44 | 6.49 ± 0.53 | no microscopic evidence of drug induces toxicity | reduced | 114 | 24 | neither 23 nor 30 caused changes on body weight | 90 | – | –
2 | epigallocatechin-3-gallate [EGCG] | reduced | 3.93 ± 0.33 | 3.83 ± 0.23 | 5.01 ± 0.35 | 4.28 ± 0.45 | 13.01 ± 1.02 | 8.58 ± 0.9 | increase in paw withdrawal latency in CCI-mice treated with EGCG from 7 to 21 dpi | 9.38 ± 0.66 | 6.15 ± 0.42 | – | reduced | – | – | – | – | < 0,1 h | < 0,1 h
3 | O=C(Oc1cccc2c(OC(=O)c3cc(O)c(O)c(O)c3)cccc12)c1cc(O)c(O)c(O)c1 [Compound 23, 1,5-Bis [(3,4,5-trihydroxybenzoyl)oxy] naphthalene] | no changes | 4.07 ± 0.31 | 3.89 ± 0.43 | 4.57 ± 0.29 | 3.77 ± 0.59 | 4.38 ± 0.3 | 3.93 ± 0.24 | did not detect differences at any time point analyzed | 4.41 ± 0.27 | 3.71 ± 0.29 | no microscopic evidence of drug induces toxicity | – | 84 | 18 | neither 23 nor 30 caused changes on body weight | 30 | – | –
